System: mammary adenocarcinoma-17/Adr
Assay: Test E: R-enantiomer of compound 22b and compound 22a against early stage mammary adenocarcinoma-17/Adr
Format: in vivo
Experimental: Then, P.B.S. was added and the pH adjusted to 7 with HCl. A volume of 0.2 ml per injection was administered to animals intravenously. […] Then, P.B.S. was added and the pH was adjusted to 7 with HCl. A volume of 0.2 ml per injection was administered to animals intravenously.

[1] = Cage 6, IV 83 mg/kg/inj qd 1-4, total 332 mg/kg
[2] = Cage 7, IV 55 mg/kg/inj qd 1-4, total 220 mg/kg
[3] = Cage 7, IV 55 mg/kg/inj qd 1-4, total 220 mg/kg, listed as R-enantiomer of compound 22b
[4] = Cage 8 (one mouse), IV single bolus 124.5 mg/kg day 1

C[C@@H](Oc1ccc(Oc2ccc3ccc(Cl)cc3n2)cc1)C(=O)O [Compound R-22b, (R) 2-[4-(7-chloroquinolin-2-yloxy)phenoxy]propanoic acid]
Neuromuscular toxicity (Cage 6, IV 83 mg/kg/inj qd 1-4): neuromuscular toxicity was not produced | % Body Wt Loss at Nadir [1]: −17.5% | % T/C mass [1]: toxic | Activity Rating [1]: toxic | Cause of death [1]: GI-epithelial damage | Day of Nadir [1]: 6 days | Drug Deaths [1]: 5/5 | Median Tumor Mass on day 9 (Range) [1]: toxic | Tumor Free day-23 [1]: 0/5 | Drug Deaths (Cage 6, IV 83 mg/kg/inj qd 1-4, total 332 mg/kg, listed as R-enantiomer of compound 22b): killing all of the 5 mice | % Body Wt Loss at Nadir [2]: −23.4% | % T/C mass [2]: 0% | Activity Rating [2]: ++++ (>2.8) | Cause of death [2]: GI-epithelial damage (diarrhea) complicated with marrow toxicity | Day of Nadir [2]: 9 days | Day of full recovery of body weight [2]: 14 days | Day tumors reached 1000 mg (range) [2]: 22 (18-23) day | Drug Deaths [2]: 1/5 | Growth Delay [2]: 13 days | Log Kill [2]: 3.3 | Median Tumor Mass on day 9 (Range) [2]: 0 (all zeros) mg | Tumor Free day-23 [2]: 0/5 | % Body Wt Loss at Nadir [3]: −23.4% | % T/C mass [3]: 0% | % Body Wt Loss at Nadir [4]: 0% | Activity Rating [4]: + (0.7-1.2) | Day of Nadir [4]: 9 days | Drug Deaths [4]: 0/1 | Growth Delay [4]: 3 days | Log Kill [4]: 0.8 | Median Tumor Mass on day 9 (Range) [4]: 340 (one mouse) mg | Neuromuscular toxicity [4]: no neuromuscular toxicity | Tumor Free day-23 [4]: 0/1 | % T/C mass (Cage 8 (one mouse), IV single bolus 124.5 mg/kg day 1, 124.5 mg/kg): 35% | % T/C mass (Cage 8 (one mouse), IV single bolus 124.5 mg/kg day 1, listed as R-enantiomer of compound 22b, 124.5 mg/kg): 35%
